Reference: PMC4805251, “Novel Antimicrobial Peptides EeCentrocins 1, 2 and EeStrongylocin 2 from the Edible Sea Urchin Echinus esculentus Have 6-Br-Trp Post-Translational Modifications” (PLoS ONE, 2016)
Like-named read-outs stand apart in the source and are kept apart here. Bridge positions count the residues as written; N and C are the ends. Square brackets hold non-standard residues; d marks the D form. Ends that are not written are not given here. I, II: the chains in the order shown. Trp(6-Br) = N[C@@H](Cc1c[nH]c2cc(Br)ccc12)C(=O)O

Experiments:
Type in all cases: cell-based
[1] = test system: Pseudomonas aeruginosa #1 (ATCC 27853)
Text: (§1) Organic phase extract, SPE eluates and HPLC-fractions were screened for antibacterial activity against two strains of Gram-positive and two strains of Gram-negative bacteria; Corynebacterium glutamicum (ATCC 13032), Staphylococcus aureus (ATCC 9144), Pseudomonas aeruginosa #1 (ATCC 27853) and Escherichia coli #1 (ATCC 25922). For extended antimicrobial bioactivity screening, the following bacterial strains were used, three strains of Gram-positive bacteria; S. epidermidis #1 (5179-R1) kindly provided by Holger Rohde, S. epidermidis #2, RP62A (ATCC 35984) and Bacillus subtilis (ATCC 23857) in addition to the Gram-negative P. aeruginosa #2, PA 01 (ATCC 15692, DSM 19880) and E. coli #2, NR 698 (MC4100/ptD4213).
(§2) Cultures stored at -80°C were smeared onto agar plates and cultured for 24 h at 35°C. One colony of each bacterial strain was transferred to 5 ml liquid Müller-Hinton (MH, Difco, Lawrence, KS, USA) medium in a glass tube and left shaking at room temperature overnight at 600 rpm. The cultures of actively growing bacteria (20 μl) were further inoculated in 5 ml MH medium and left shaking for 2 h at room temperature. The antibacterial assays were performed as previously described by. Briefly, the bacterial cultures were diluted with medium to 1.3–1.5 × 10^4 bacteria/ml final concentrations and an aliquot of 50 μl was added to each well in 96-well Nunclon^TM microtiter plates (Nagle Nunc Int., Denmark) preloaded with 50 μl test sample solutions, i.e. extracts, eluates or peptides.
(§3) The test plates were incubated for 24 h at 35°C with optical density (OD595) recorded every hour using an Envision 2103 multilabel reader, controlled by the Wallac Envision manager (PerkinElmer, CT, USA). Antibacterial activity was defined as a sample showing >90% inhibition (as measured by optical density) compared to the negative (growth) controls, consisting of bacteria and water. Oxytetracycline (20 μM) served as a positive (inhibition) control. The minimum inhibitory concentration (MIC) was defined as the lowest concentration of a sample displaying >90% inhibition.
(§4) ACN-phases and SPE eluates were tested with two-fold serial dilutions ranging from 5.0 to 0.005 mg/ml (5.0, 2.5, 1.25, 0.63, 0.31, 0.16, 0.08, 0.04, 0.02, 0.01, 0.005 mg/ml) whereas HPLC-fractions were tested undiluted for antibacterial activity. Pure, native peptides and synthetic peptides (described in section 2.11) were tested for antimicrobial activity in concentrations ranging from 100 to 0.1 μM in two-fold serial dilutions (100, 50, 25, 12.5, 6.25, 3.13, 1.56, 0.78, 0.39, 0.20, 0.10 μM). Antimicrobial assays involving natural peptides (i.e. fractionated natural material) were run only once due to limited quantities, whereas all other assays were run in triplicates.

[2] = test system: Staphylococcus aureus (ATCC 9144)
Text: as §1, §2, §3, §4

[3] = test system: Corynebacterium glutamicum (ATCC 13032)
Text: as §1, §2, §3, §4

[4] = test system: Escherichia coli #1 (ATCC 25922)
Text: as §1, §2, §3, §4

[5] = test system: human red blood cells; test: Haemolytic activity assay
Experimental: Synthesised peptide analogues of EeCentrocin 1 and 2 were screened for eukaryotic cell-toxicity with a haemolytic activity assay using human red blood cells as described previously. The assay was performed on 96-well U-shaped microtiter plates (Nagle Nunc) with 50 μl peptide sample, 40 μl phosphate-buffered saline (PBS) and 10 μl red blood cells. The final peptide concentrations ranged from 100 to 0.1 μM in two-fold serial dilutions. After one hour of incubation at 37°C in a shaker, the plate was centrifuged at 200 g for 5 min and the supernatants (60 μl) were carefully transferred to a new flat-bottomed polycarbonate microtiter plate (Nagle Nunc) and absorbance at 550 nm was measured on a Synergy H1 multimode reader (BioTek, VT, USA). Cell suspension added 0.05% Triton X-100 (Sigma-Aldrich, MO, USA) in PBS served as positive (100% haemolysis) control and cell suspension added PBS served as negative (0% haemolysis) control. The percent haemolysis was calculated using the formula [(Asample-Abaseline)/(Atriton-Abaseline)]×100. The experiment was performed in duplicates.

[6] = MH medium, 24 h at 35°C, OD595, >90% inhibition, value of Table 2, native peptides run once, synthetic in triplicates
[7] = MH medium, 24 h at 35°C, OD595, lowest concentration with >90% inhibition, value of Table 2, native peptides run once, synthetic in triplicates

Substance: I: G[Trp(6-Br)][Trp(6-Br)]RRTVDKVRNAGRKVAGFASKACGALGH-OH / II: DIGKYCGYAHALN-NH2 (disulfide I:25-II:6) [EeCentrocin 1]
- MIC P. aeruginosa #1 ([1]; ATCC 27853, 24 h): 0.78 µM
- MIC S. aureus ([2]; ATCC 9144, 24 h): 0.78 µM
- MIC C. glutamicum ([3]; ATCC 13032, 24 h): 0.78 µM
- MIC E. coli #1 ([4]; ATCC 25922, 24 h): 0.1 µM

Substance: Triton X-100 [Lysis (0.05% Triton X-100), reference compound]
- Absorbance at 550nm, lysis control [5]: 0.24

Substance: XNPFKKIAHRXCYPKNE (bicyclic or more) [EeStrongylocin 2, cysteine-rich antimicrobial peptide from E. esculentus with 3 disulphide bonds and a 6-Br-Trp]
- MIC P. aeruginosa #1 [1, 6]: 1.56 µM
- MIC S. aureus [2, 7]: 3.13 µM
- MIC C. glutamicum [3, 7]: 1.56 µM
- MIC E. coli #1 [4, 6]: 0.78 µM
